Source: publication PMC5110965, “Evolutionarily conserved odorant receptor function questions ecological context of octenol role in mosquitoes” (Scientific Reports, 2016)
pEC50: −log10 of the molar value.

Columns and labels:
[1] = test system: T1, TaOR8; test: two-electrode voltage clamp in Xenopus oocytes, concentration-response; type: cell-based, Toxorhynchites amboinensis
T1 construct: gene Or8; with TaORco

[2] = test system: T1, TaOR8; test: two-electrode voltage clamp; […] DEET against […] (R)-octenol response; type: cell-based, Toxorhynchites amboinensis; conditions: 1000 µM

| Structure (SMILES) | pEC50 [1] | % inhibition at 10^-3 M [2] |
| --- | --- | --- |
| C=C[C@H](O)CCCCC [(R), (R)-(−)-1-octen-3-ol] | 6.40 |  |
| C=C[C@@H](O)CCCCC [(S), (S)-(+)-1-octen-3-ol] | 4.30 |  |
| C=CC(O)CCCCC (racemic) [(RS), (RS)-1-octen-3-ol] | 5.48 |  |
| CCN(CC)C(=O)c1cccc(C)c1 [DEET, N,N-Diethyl-meta-toluamide] |  | 90 |
